Results as given in PubChem BioAssay (NCI).
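Each compound was tested at five concentrations against cells in 96-well plates for 48 hours. TGI: total growth inhibition.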

Key:
Experiment in all cases: NCI tumour cell line growth inhibition, 48 h
[1] = system: 786-0 renal
[2] = system: ACHN renal
[3] = system: BT-549 breast
[4] = system: HL-60(TB) leukemia
[5] = system: HT29 colon
[6] = system: KM12 colon
[7] = system: LOX IMVI melanoma
[8] = system: M14 melanoma
[9] = system: MCF7 breast
[10] = system: MDA-N
[11] = system: NCI-H23 lung
[12] = system: NCI/ADR-RES ovarian
[13] = system: OVCAR-8 ovarian
[14] = system: RPMI-8226 leukemia
[15] = system: SK-MEL-2 melanoma
[16] = system: SK-MEL-5 melanoma
[17] = system: SK-OV-3 ovarian
[18] = system: SN12C renal
[19] = system: TK-10 renal

| Structure (SMILES) | TGI [1] [µM] | TGI [2] [µM] | TGI [3] [µM] | TGI [4] [µM] | TGI [5] [µM] | TGI [6] [µM] | TGI [7] [µM] | TGI [8] [µM] | TGI [9] [µM] | TGI [10] [µM] | TGI [11] [µM] | TGI [12] [µM] | TGI [13] [µM] | TGI [14] [µM] | TGI [15] [µM] | TGI [16] [µM] | TGI [17] [µM] | TGI [18] [µM] | TGI [19] [µM] |
| --- | --- | --- | --- | --- | --- | --- | --- | --- | --- | --- | --- | --- | --- | --- | --- | --- | --- | --- | --- |
| CC[C@H](Nc1c(O)c2c(c(O)c1Cl)C(=O)C=CC2=O)C(=O)OC | > 10 | > 10 | > 10 | 8.64 | > 10 | > 10 | > 10 | > 10 | > 10 | > 10 | > 10 | > 10 | > 10 | > 10 | > 10 | > 10 | > 10 | 9.16 | > 10 |
| O=C(c1c(F)c(F)c(F)c(F)c1F)N1CCN(C(=O)c2c(F)c(F)c(F)c(F)c2F)C1=S | 27.3 | 20.3 | 27.8 | > 100 | 12.9 | 18.8 | 6.57 | 4.02 | 21.1 | 6.54 | 20.1 | 32.1 | 12.9 | > 100 | 7.33 | 19.6 | 21.6 | 24.5 | 27 |
| Nc1ccc2c(=O)cc(-c3cccs3)[nH]c2n1 | > 100 | > 100 | > 100 | 0.671 | > 72 | > 100 | > 45.4 | > 54.8 | > 100 | 1.73 | > 26.3 | 5.5 | > 60.5 | – | > 100 | 21 | > 100 | > 59.7 | > 100 |
| COc1ccc(S(=O)(=O)NC(CCC(=O)NN)C(=O)NN)cc1 (configuration not stated) | > 100 | > 100 | > 100 | > 100 | > 100 | > 100 | > 100 | > 100 | > 100 | > 100 | > 100 | > 100 | > 100 | > 100 | > 100 | > 100 | > 100 | > 100 | > 100 |
| c1ccc(N=C(Nc2ccccc2)N2CCCC2)cc1 | > 100 | > 100 | > 100 | > 100 | > 100 | > 100 | > 100 | > 100 | > 100 | > 100 | > 100 | > 100 | > 100 | > 100 | > 100 | > 100 | > 100 | > 100 | > 100 |
| CCCCN1CN2C(=O)C(C(=O)OCC)C(=O)c3sc4nc(SC)nc1c4c32 (configuration not stated) | – | 30.7 | 30.6 | > 100 | 40.5 | 36 | 38.1 | 40.1 | 39.9 | 32.3 | 33.6 | 37.1 | 36.8 | 42.7 | 36.6 | 24.8 | 31.7 | 34.1 | 28.4 |
